This assay addresses RNA-directed RNA polymerase (Hepacivirus hominis, UniProt O39930). As to the kind of experiment: Inhibition of Hepatitis C virus genotype 1 NS5B polymerases lacking C-terminal 47 amino acid residues expressed in Escherichia coli after 60 min.
Regarding `NC(=O)c1ccc(-c2ccc(Cl)cc2)c(COc2ccc(-c3nc4cc(C(=O)O)ccc4n3C3CCCCC3)c(F)c2)c1`, inhibition was half-maximal at 0.013 µM (IC50).

As to `Cc1ncc(COc2ccc(-c3nc4cc(C(=O)O)ccc4n3C3CCCCC3)c(F)c2)c(-c2ccc(Cl)cc2)n1`, it took 0.188 µM to reach half-maximal inhibition (IC50).

Consider `CC(=O)NC(=O)c1ccc(-c2ccc(Cl)cc2)c(COc2ccc(-c3nc4cc(C(=O)O)ccc4n3C3CCCCC3)c(F)c2)c1`, for which the IC50 (in general, the concentration that gives 50% inhibition) is 0.014 µM.

For the compound `O=C(O)c1ccc2c(c1)nc(-c1ccc(OCc3cc(N4CCCC4=O)ccc3-c3ccc(Cl)cc3)cc1F)n2C1CCCCC1`, inhibition was half-maximal at 0.012 µM (IC50).
